From patent US8580965B2, “Substituted sulfonamide compounds” (Gruenenthal GmbH, priority 2006, dated 2013)

Legend:
[1] = molecular target: T1, human B1R receptor (bradykinin 1 receptor) (Homo sapiens, UniProt P46663); experiment: FLIPR Ca2+ assay (Fluo-4) on CHO K1 cells stably transfected with the human B1R gene; % activation and % inhibition at 10 μM; format: cell-based; conditions: CHO-K1, test substance 10 μM; CHO K1 hB1R cells; Ca2+ inflow after 0.5 nM Lys-Des-Arg9-bradykinin; read-out: B1R antagonism, human [10 μM] % inhibition
T1 construct: host or cells: CHO K1 cells (hB1R cells)
T1 sequence (P46663 1-353): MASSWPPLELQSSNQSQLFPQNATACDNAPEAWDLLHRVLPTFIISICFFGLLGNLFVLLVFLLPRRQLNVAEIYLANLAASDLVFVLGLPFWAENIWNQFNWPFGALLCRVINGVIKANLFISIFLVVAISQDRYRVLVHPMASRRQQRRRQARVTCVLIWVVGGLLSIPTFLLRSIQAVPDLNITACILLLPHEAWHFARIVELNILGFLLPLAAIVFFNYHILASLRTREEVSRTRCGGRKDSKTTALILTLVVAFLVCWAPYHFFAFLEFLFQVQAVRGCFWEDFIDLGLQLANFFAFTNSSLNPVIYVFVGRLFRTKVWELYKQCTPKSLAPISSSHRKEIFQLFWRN
Summary of the method: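 Fluo-4 Ca2+ flux on FLIPR in stable hB1R or rB1R CHO K1 lines, two additions. Agonism: 10 µM compound versus 0.5 nM Lys-Des-Arg9-BK (human) or 100 nM Des-Arg9-BK (rat); antagonism: same agonists applied 10 min later, suppression expressed against maximum achievable inhibition.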

[2] = molecular target: T2, B1R receptor of the rat (bradykinin 1 receptor) (Rattus norvegicus, UniProt P97583); experiment: FLIPR Ca2+ assay (Fluo-4) on CHO K1 cells stably transfected with the B1R gene of the rat; % activation and % inhibition at 10 μM; format: cell-based; conditions: CHO-K1, test substance 10 μM; CHO K1 rB1R cells; Ca2+ inflow after 100 nM Des-Arg9-bradykinin; read-out: B1R antagonism, rat [10 μM] % inhibition
T2 construct: host or cells: CHO K1 cells (rB1R cells)
T2 sequence (P97583 1-337): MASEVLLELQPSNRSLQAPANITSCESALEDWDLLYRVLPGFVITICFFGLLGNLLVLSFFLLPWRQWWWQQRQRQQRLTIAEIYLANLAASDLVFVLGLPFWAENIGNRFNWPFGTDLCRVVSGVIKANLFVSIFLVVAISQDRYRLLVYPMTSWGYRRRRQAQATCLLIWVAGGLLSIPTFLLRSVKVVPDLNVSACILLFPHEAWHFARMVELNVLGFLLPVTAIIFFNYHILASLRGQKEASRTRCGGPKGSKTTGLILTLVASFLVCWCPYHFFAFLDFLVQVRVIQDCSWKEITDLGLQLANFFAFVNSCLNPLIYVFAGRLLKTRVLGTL
Experimental: The agonistic or antagonistic action of substances can be quantified on the bradykinin receptor 1 (B1R) of the species human and rat with ectopically expressing cell lines (CHO K1 cells) and with the aid of a Ca^2+-sensitive dye (Fluo-4) using a fluorescent imaging plate reader (FLIPR). The indication in % activation is based on the Ca^2+ signal after addition of Lys-Des-Arg^9-bradykinin (0.5 nM) or Des-Arg^9-bradykinin (100 nM). Antagonists result in a suppression of the Ca^2+ influx following administration of the agonist. The % inhibition in comparison with the maximum achievable inhibition is indicated.
Functional Investigation on the Bradykinin 1 Receptor (B1R)
The agonistic or antagonistic action of substances can be determined on the bradykinin 1 receptor (B1R) of the human and rat species with the following assay. According to this assay, the Ca^2+ inflow through the channel is quantified with the aid of a Ca^2+-sensitive dyes (Fluo-4 type, Molecular Probes Europe BV, Leiden, The Netherlands) in a fluorescent imaging plate reader (FLIPR, Molecular Devices, Sunnyvale, USA).
Chinese Hamster Ovary cells (CHO K1 cells) which are stably transfected with the human B1R gene (hB1R cells, Euroscreen s.a., Gosselies, Belgium) or the B1R gene of the rat (rB1R cells, Axxam, Milan, Italy) are used. For functional investigations, these cells are plated-out on black 96-well plates with a clear base (BD Biosciences, Heidelberg, Germany) in a density of 20,000-25,000 cells/well. Overnight, the cells are incubated at 37° C. and 5% CO2 in culture medium (hB1R cells: Nutrient Mixture Ham's F12, Gibco Invitrogen GmbH, Karlsruhe, Germany; rB1R cells: D-MEM/F12, Gibco Invitrogen, Karlsruhe, Germany) with 10 vol. % FBS (foetal bovine serum, Gibco Invitrogen GmbH, Karlsruhe, Germany). On the following day, the cells are loaded with 2.13 μM Fluo-4 (Molecular Probes Europe BV, Leiden, The Netherlands) in HBSS buffer (Hank's buffered saline solution, Gibco Invitrogen GmbH, Karlsruhe, Germany) […] (Sigma-Aldrich, Taufkirchen, Germany) and 10 mM HEPES (Sigma-Aldrich, Taufkirchen, Germany) for 60 min at 37° C. The plates are subsequently washed 2× with HBSS buffer, and HBSS buffer which additionally contains 0.1% BSA (bovine serum albumin; Sigma-Aldrich, Taufkirchen, Germany), 5.6 mM glucose and 0.05% gelatine (Merck KGaA, Darmstadt, Germany) is added. After a further incubation of 20 minutes at room temperature, the plates are inserted into the FLIPR for Ca^2+ measurement. The Ca^2+-dependent fluorescence is measured here before and after addition of substances (λex=488 nm, λem=540 nm). The quantification is effected by measurement of the highest fluorescence intensity (FC, fluorescence counts) over time.
The FLIPR protocol comprises 2 additions of substance. Test substances (10 μM) are first pipetted on to the cells and the Ca^2+ inflow is compared with the control (hB1R: Lys-Des-Arg^9-bradykinin 0.5 nM; rB1R: Des-Arg^9-bradykinin 100 nM). The value in % activation based on the Ca^2+ signal after addition of Lys-Des-Arg^9-bradykinin (0.5 nM) or Des-Arg^9-bradykinin (100 nM) is obtained therefrom. After incubation for 10 minutes, 0.5 nM Lys-Des-Arg^9-bradykinin (hB1R) or 100 nM Des-Arg^9-bradykinin (rB1R) are applied and the inflow of Ca^2+ is likewise determined. Antagonists lead to a suppression of the Ca^2+ inflow. % inhibition compared with the maximum inhibition which can be achieved is calculated. The compounds show a good activity on the human and on the rat receptor. The following data were determined by way of example: […]

Structure (SMILES) | inhibition at 10 µM [1] [%] | inhibition at 10 µM [2] [%]
CN(CCOCC(=O)N1CCC(O)(c2ccccn2)CC1)S(=O)(=O)c1ccc(OC(F)(F)F)cc1 [Example 20, N-{2-[2-(4′-hydroxy-3′,4′,5′,6′-tetrahydro-2′H-[2,4′]bipyridinyl-1′-yl)-2-oxo-ethoxy]-ethyl}-N-methyl-4-trifluoromethoxy-phenylsulfonamide] | 22.2 | 17.1
COc1cc(C)c(S(=O)(=O)N2CCC(OCC(=O)N3CCC(O)(c4ccccn4)CC3)C2)c(C)c1 (centres unmarked) [Example 21, 1-(4′-hydroxy-3′,4′,5′,6′-tetrahydro-2′H-[2,4′]bipyridinyl-1′-yl)-2-[1-(4-methoxy-2,6-dimethyl-phenylsulfonyl)-pyrrolidin-3-yloxy]-ethanone] | 20.5 | 71.1
COc1ccc(S(=O)(=O)N2Cc3ccccc3CC2COCC(=O)N2CCC(O)(Cc3ccccc3)CC2)cc1 (centres unmarked) [Example 23, 1-(4-benzyl-4-hydroxy-piperidin-1-yl)-2-[2-(4-methoxy-phenylsulfonyl)-1,2,3,4-tetrahydro-isoquinolin-3-ylmethoxy]-ethanone] | 15.7 | 56.9
Cc1ccc(S(=O)(=O)N2CCC(OCC(=O)N3CCC(O)(Cc4ccccc4)CC3)C2)cc1 (centres unmarked) [Example 24, 1-(4-benzyl-4-hydroxy-piperidin-1-yl)-2-[1-(toluene-4-sulfonyl)-pyrrolidin-3-yloxy]-ethanone] | 12.1 | 6.88
COc1ccc(S(=O)(=O)N2CCCC2COCC(=O)N2CCC(O)(c3ccncc3)CC2)cc1 (centres unmarked) [Example 26, 1-(4-hydroxy-3,4,5,6-tetrahydro-2H-[4,4′]bipyridinyl-1-yl)-2-[1-(4-methoxy-phenylsulfonyl)-pyrrolidin-2-ylmethoxy]-ethanone] | 9.64 | 5.09
Cc1cc(C)c(S(=O)(=O)N2CCC(OCC(=O)N3CCC(O)(c4ccccn4)CC3)C2)c(C)c1 (centres unmarked) [Example 30, 1-(4′-hydroxy-3′,4′,5′,6′-tetrahydro-2′H-[2,4′]bipyridinyl-1′-yl)-2-[1-(2,4,6-trimethyl-phenylsulfonyl)-pyrrolidin-3-yloxy]-ethanone] | 6.86 | 17.4
CN(c1ccccc1OCC(=O)N1CCC(O)(Cc2ccccc2)CC1)S(=O)(=O)c1ccc(Cl)c(Cl)c1 [Example 33, N-{2-[2-(4-benzyl-4-hydroxy-piperidin-1-yl)-2-oxo-ethoxy]-phenyl}-3,4-dichloro-N-methyl-phenylsulfonamide] | 6.18 | 19.4
O=C(COC1CCN(S(=O)(=O)c2ccccc2)C1)N1CCC(O)(c2ccccn2)CC1 (centres unmarked) [Example 34, 2-(1-phenylsulfonyl-pyrrolidin-3-yloxy)-1-(4′-hydroxy-3′,4′,5′,6′-tetrahydro-2′H-[2,4′]bipyridinyl-1′-yl)-ethanone] | 5.93 | 40.3
COc1ccc(S(=O)(=O)N2CCCC2COCC(=O)N2CCC(O)(c3ccccn3)CC2)cc1 (centres unmarked) [Example 40, 1-(4′-hydroxy-3′,4′,5′,6′-tetrahydro-2′H-[2,4′]bipyridinyl-1′-yl)-2-[1-(4-methoxy-phenylsulfonyl)-pyrrolidin-2-ylmethoxy]-ethanone] | 1.84 | 61.3

Now from value to compound:

inhibition at 10 µM [1] [%] | inhibition at 10 µM [2] [%] | Structure (SMILES)
1.29 | -6.31 | COc1ccc(S(=O)(=O)N(C)CCOCC(=O)N2CCC(O)(c3ccccn3)CC2)cc1OC [Example 41, N-{2-[2-(4′-hydroxy-3′,4′,5′,6′-tetrahydro-2′H-[2,4′]bipyridinyl-1′-yl)-2-oxo-ethoxy]-ethyl}-3,4-dimethoxy-N-methyl-phenylsulfonamide]
0.67 | -38.1 | COc1ccc(S(=O)(=O)N(C)CCOCC(=O)N2CCC(O)(c3ccccn3)CC2)cc1 [Example 42, N-{2-[2-(4′-hydroxy-3′,4′,5′,6′-tetrahydro-2′H-[2,4′]bipyridinyl-1′-yl)-2-oxo-ethoxy]-ethyl}-4-methoxy-N-methyl-phenylsulfonamide]
-1.29 | 33.9 | CN(C1CCCCC1OCC(=O)N1CCC(O)(Cc2ccccc2)CC1)S(=O)(=O)c1ccc(Cl)c(Cl)c1 (centres unmarked) [Example 43, N-{2-[2-(4-benzyl-4-hydroxy-piperidin-1-yl)-2-oxo-ethoxy]-cyclohexyl}-3,4-dichloro-N-methyl-phenylsulfonamide]
-2.3 | 76.6 | COc1ccc(S(=O)(=O)N2CCCCC2CCOCC(=O)N2CCC(O)(c3ccccn3)CC2)cc1 (centres unmarked) [Example 44, 1-(4′-hydroxy-3′,4′,5′,6′-tetrahydro-2′H-[2,4′]bipyridinyl-1′-yl)-2-{2-[1-(4-methoxy-phenylsulfonyl)-piperidin-2-yl]-ethoxy}-ethanone]
-5.73 | 7.14 | O=C(COCCN1CCN(S(=O)(=O)c2ccccc2)CC1)N1CCC(O)(c2ccncc2)CC1 [Example 49, 2-[2-(4-phenylsulfonyl-piperazin-1-yl)-ethoxy]-1-(4-hydroxy-3,4,5,6-tetrahydro-2H-[4,4′]bipyridinyl-1-yl)-ethanone]
-9.09 | 47.5 | COc1ccc(S(=O)(=O)N2Cc3ccccc3CC2COCC(=O)N2CCC(O)(c3ccccn3)CC2)cc1 (centres unmarked) [Example 50, 1-(4′-hydroxy-3′,4′,5′,6′-tetrahydro-2′H-[2,4′]bipyridinyl-1′-yl)-2-[2-(4-methoxy-phenylsulfonyl)-1,2,3,4-tetrahydro-isoquinolin-3-ylmethoxy]-ethanone]
-9.71 | 10.8 | O=C(COC1CCCN(S(=O)(=O)c2ccccc2)C1)N1CCC(O)(c2ccccn2)CC1 (centres unmarked) [Example 51, 2-(1-phenylsulfonyl-piperidin-3-yloxy)-1-(4′-hydroxy-3′,4′,5′,6′-tetrahydro-2′H-[2,4′]bipyridinyl-1′-yl)-ethanone]
